Test results: US20180343857A1, “BIOSOLUBILIZER” (SOLIANCE, priority 2012, published 2018)
Where a name gives a salt, the structure may show the parent alone.

Tested on: Avena Fatua
Assay: Biological effectiveness of glyphosate with extemporaneous adjuvant (biomass reduction curves)
Type: in vivo
Details: Avena Fatua in pots; glyphosate 50 to 650 g equivalent acid per hectare; dry biomass 3 weeks after treatment; R = 1 for herbicide without adjuvant
From the text: The preparation of example 2.4 containing terpenic alcohols solubilised by sophorolipids is used as an extemporaneous adjuvant of glyphosate. Glyphosate is a non-selective herbicide, the definition and use of which are described in particular in “The biochemistry and uses of pesticides, 2nd edition” by Kenneth A. Hassall published by VCH (1990). An extemporaneous adjuvant is a preparation added to the phytosanitary preparation at the moment of application and is used to reinforce the action of the latter.
The glyphosate used is a solution of glyphosate in the form of isopropylamine salt titrated to 620 g/l equivalent glyphosate acid.
The effectiveness of the preparation according to the invention is assessed by forming curves of biological effectiveness, that is by determining the ability of the preparations to reduce the biomass of a target plant as a function of the concentration of herbicide. […]
where Y is the dry biomass of the plant (plant cut at the base and dried 24 h at 110° C. in a ventilated heat chamber), X is the concentration of herbicide expressed in grams of glyphosate acid per hectare. C, D, a and b being factors determined by analysing the curve according to the least squares method. […] Its value is determined by applying the above equation with the parameters D, C, a and b of the curve of the herbicide without adjuvant (R=1) according to the least squares method. […]

O=C(O)CNCP(=O)(O)O [Glyphosate (iso-propylamine salt), Glyphosate]
R (factor of effectiveness): 1
